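Growth conditions: 96-well plates. Treatment: test compound, 48 hours, 5 concentrations. Analysis: linear interpolation between bracketing concentrations; unreached endpoints set to highest concentration. TGI denotes the concentration required for complete inhibition of growth.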
What was measured:
Assay in all cases: inhibition of tumour cell growth, NCI panel, 48 h
[1] = tested on: HCT-116 colon
[2] = tested on: PC-3 prostate
[3] = tested on: SK-MEL-2 melanoma
[4] = tested on: SNB-75 CNS
[5] = tested on: SR leukemia
[6] = tested on: MOLT-4 leukemia
[7] = tested on: SW-620 colon
[8] = tested on: MCF7 breast
[9] = tested on: NCI-H522 lung
[10] = tested on: EKVX NSCLC
[11] = tested on: SNB-19 CNS
[12] = tested on: NCI-H23 lung
[13] = tested on: UACC-257 melanoma
[14] = tested on: NCI/ADR-RES ovarian
[15] = tested on: RPMI-8226 leukemia
[16] = tested on: SN12C renal
[17] = tested on: HCT-15 colon
[18] = tested on: NCI-H226 lung
[19] = tested on: SK-MEL-5 melanoma
[20] = tested on: OVCAR-5 ovarian
[21] = tested on: MDA-MB-231 breast
[22] = tested on: A498 renal
[23] = tested on: SF-268 CNS
[24] = tested on: A549 NSCLC
[25] = tested on: OVCAR-8 ovarian
[26] = tested on: HCC-2998 colon
[27] = tested on: KM12 colon
[28] = tested on: NCI-H460 lung
[29] = tested on: HS 578T breast
[30] = tested on: SF-539 CNS
[31] = tested on: T-47D breast
[32] = tested on: K-562 leukemia
[33] = tested on: CCRF-CEM leukemia
[34] = tested on: IGROV1 ovarian
[35] = tested on: TK-10 renal
[36] = tested on: SK-OV-3 ovarian
[37] = tested on: 786-0 renal
[38] = tested on: COLO 205 colon
[39] = tested on: U251 CNS
[40] = tested on: MDA-N
[41] = tested on: MDA-MB-435
[42] = tested on: HT29 colon
[43] = tested on: ACHN renal
[44] = tested on: DU-145 prostate
[45] = tested on: SK-MEL-28 melanoma
[46] = tested on: SF-295 CNS
[47] = tested on: LOX IMVI melanoma
[48] = tested on: HOP-62 NSCLC
[49] = tested on: HL-60(TB) leukemia
[50] = tested on: OVCAR-4 ovarian
[51] = tested on: UO-31 renal
[52] = tested on: M14 melanoma
[53] = tested on: MALME-3M melanoma
[54] = tested on: UACC-62 melanoma
[55] = tested on: HOP-92 NSCLC
[56] = tested on: OVCAR-3 ovarian

For `COc1ccc(C2(O)C(S(=O)(=O)c3ccc(C)cc3)=Cc3ccc(OC)cc32)cc1` (configuration not stated), the TGI [1] was over 100 µM, the TGI [2] was over 100 µM and the TGI [3] was over 100 µM. The TGI [4] was 60.1 µM, the TGI [5] was over 100 µM and the TGI [6] was over 100 µM. The TGI [7] was over 100 µM, the TGI [8] was over 100 µM and the TGI [9] was over 100 µM. It also gave a TGI [10] of over 100 µM, a TGI [11] of over 100 µM and a TGI [12] of over 100 µM. It also gave a TGI [13] of over 100 µM, a TGI [14] of over 100 µM and a TGI [15] of over 100 µM. For the same compound, the TGI [16] was over 100 µM, the TGI [17] was over 100 µM and the TGI [18] was over 100 µM. For the same compound, the TGI [19] was over 100 µM, the TGI [20] was over 100 µM and the TGI [21] was over 100 µM. The TGI [22] was over 100 µM, the TGI [23] was over 100 µM and the TGI [24] was over 100 µM. For the same compound, the TGI [25] was over 100 µM, the TGI [26] was over 100 µM and the TGI [27] was over 100 µM. For the same compound, the TGI [28] was over 100 µM, the TGI [29] was over 100 µM and the TGI [30] was over 100 µM. The TGI [31] was over 100 µM, the TGI [32] was over 100 µM and the TGI [33] was over 100 µM. The TGI [34] was over 100 µM, the TGI [35] was over 100 µM and the TGI [36] was over 100 µM. For the same compound, the TGI [37] was over 100 µM, the TGI [38] was over 100 µM and the TGI [39] was over 100 µM. It also gave a TGI [40] of over 100 µM, a TGI [41] of over 100 µM and a TGI [42] of over 100 µM. It also gave a TGI [43] of over 100 µM, a TGI [44] of over 100 µM and a TGI [45] of over 100 µM. It also gave a TGI [46] of 97.4 µM, a TGI [47] of over 100 µM and a TGI [48] of 77.2 µM. For the same compound, the TGI [49] was over 100 µM.

Compound `CCN(CC)CCOCCn1c2c(c3ccccc31)CCCC2` has a TGI [1] of 29.4 µM, a TGI [2] of 59.5 µM and a TGI [50] of over 100 µM. For the same compound, the TGI [3] was 29.6 µM, the TGI [4] was over 100 µM and the TGI [5] was 35.5 µM. For the same compound, the TGI [6] was 35.5 µM, the TGI [7] was 36.8 µM and the TGI [8] was 35.2 µM. It also gave a TGI [10] of over 100 µM, a TGI [12] of over 100 µM and a TGI [13] of 48.7 µM. It also gave a TGI [14] of 33.3 µM, a TGI [15] of 51.1 µM and a TGI [16] of 35.5 µM. The TGI [17] was 34.5 µM, the TGI [51] was 36.8 µM and the TGI [52] was 31.3 µM. For the same compound, the TGI [18] was 55.2 µM, the TGI [53] was 29.3 µM and the TGI [19] was 26.3 µM. For the same compound, the TGI [20] was 41.3 µM, the TGI [21] was 35.1 µM and the TGI [54] was 32.4 µM. The TGI [23] was over 100 µM, the TGI [24] was 72.2 µM and the TGI [25] was over 100 µM. It also gave a TGI [26] of 31 µM, a TGI [27] of over 100 µM and a TGI [28] of 39.1 µM. It also gave a TGI [29] of 56.5 µM, a TGI [30] of 32 µM and a TGI [55] of 68.9 µM. It also gave a TGI [31] of 52.9 µM, a TGI [32] of 30.2 µM and a TGI [33] of 50.9 µM. It also gave a TGI [34] of 60 µM, a TGI [35] of 38.5 µM and a TGI [36] of 86.3 µM. The TGI [37] was 30 µM, the TGI [38] was 39.1 µM and the TGI [39] was 49.3 µM. For the same compound, the TGI [40] was 31.1 µM, the TGI [41] was 32.7 µM and the TGI [42] was 90.2 µM. For the same compound, the TGI [43] was 41.9 µM, the TGI [44] was 91.1 µM and the TGI [45] was 40 µM. It also gave a TGI [46] of over 100 µM, a TGI [47] of 37.3 µM and a TGI [56] of over 100 µM. The TGI [48] was 31.5 µM and the TGI [49] was 24.6 µM.

Source: PubChem BioAssay (NCI)
